Measurements: ChEMBL document CHEMBL3779789, “Tricyclic pyrazoles. Part 8. Synthesis, biological evaluation and modelling of tricyclic pyrazole carboxamides as potential CB2 receptor ligands with antagonist/inverse agonist properties” (Eur J Med Chem, 2016)
Activity calls are given as the source filed them. No cut-off for these calls is given here.

Legend:
Cannabinoid receptor 2 [1] = biological target: T1, Cannabinoid receptor 2 (Homo sapiens, UniProt P34972); assay: Displacement of [3H]CP55940 from human CB2 receptor expressed in HEK293-EBNA cell membrane at 40 uM incubated for 90 mins by liquid scintillation counting method relative to control; assay type: cell membranes
T1 sequence (P34972 whole entry): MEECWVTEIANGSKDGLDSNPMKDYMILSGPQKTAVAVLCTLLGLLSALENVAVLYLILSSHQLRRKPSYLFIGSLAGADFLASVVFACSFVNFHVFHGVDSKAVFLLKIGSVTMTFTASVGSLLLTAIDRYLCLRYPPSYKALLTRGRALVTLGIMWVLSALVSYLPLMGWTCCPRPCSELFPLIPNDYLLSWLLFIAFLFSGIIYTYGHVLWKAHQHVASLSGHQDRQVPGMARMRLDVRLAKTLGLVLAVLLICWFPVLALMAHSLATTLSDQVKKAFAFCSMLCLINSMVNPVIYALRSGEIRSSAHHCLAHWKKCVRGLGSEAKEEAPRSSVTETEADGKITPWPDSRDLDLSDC

[2] = biological target: Cannabinoid receptor 2 (Mus musculus) (UniProt P47936); assay: Antagonist activity at CB2 receptor in mouse BV2 cells assessed as reversal of WIN55,212-2-induced reduction of LPS-induced PGE2 production at 10 fold Ki concentration incubated for 16 hrs by ELISA; assay type: cell-based; conditions: BV-2
Sequence of Cannabinoid receptor 2 (Mus musculus) (P47936 whole entry): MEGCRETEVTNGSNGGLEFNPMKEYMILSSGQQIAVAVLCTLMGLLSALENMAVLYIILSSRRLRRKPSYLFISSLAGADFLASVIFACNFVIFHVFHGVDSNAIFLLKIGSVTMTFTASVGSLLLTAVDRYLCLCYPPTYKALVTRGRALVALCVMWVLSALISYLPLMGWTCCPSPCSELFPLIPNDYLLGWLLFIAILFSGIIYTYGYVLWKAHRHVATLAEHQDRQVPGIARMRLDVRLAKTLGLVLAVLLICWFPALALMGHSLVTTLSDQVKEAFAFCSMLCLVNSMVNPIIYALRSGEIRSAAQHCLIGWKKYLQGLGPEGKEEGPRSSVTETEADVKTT

Cannabinoid receptor 2 [3] = biological target: T1, Cannabinoid receptor 2; assay: Antagonist/inverse agonist activity at human CB2 receptors expressed in human Chem4 cell membrane incubated for 30 mins by [35S]GTPgammaS binding assay; assay type: functional, cell membranes
[4] = Selectivity ratio of Ki for human CB1 receptor expressed in HEK293-EBNA cell membrane to Ki for human CB2 receptor expressed in HEK293-EBNA cell membrane; assay type: cell-based
Cannabinoid receptor 1 [5] = biological target: T2, Cannabinoid receptor 1 (Homo sapiens, UniProt P21554); assay: Displacement of [3H]CP55940 from human CB1 receptor expressed in HEK293-EBNA cell membrane at 40 uM incubated for 90 mins by liquid scintillation counting method relative to control; assay type: cell membranes
T2 sequence (P21554 whole entry): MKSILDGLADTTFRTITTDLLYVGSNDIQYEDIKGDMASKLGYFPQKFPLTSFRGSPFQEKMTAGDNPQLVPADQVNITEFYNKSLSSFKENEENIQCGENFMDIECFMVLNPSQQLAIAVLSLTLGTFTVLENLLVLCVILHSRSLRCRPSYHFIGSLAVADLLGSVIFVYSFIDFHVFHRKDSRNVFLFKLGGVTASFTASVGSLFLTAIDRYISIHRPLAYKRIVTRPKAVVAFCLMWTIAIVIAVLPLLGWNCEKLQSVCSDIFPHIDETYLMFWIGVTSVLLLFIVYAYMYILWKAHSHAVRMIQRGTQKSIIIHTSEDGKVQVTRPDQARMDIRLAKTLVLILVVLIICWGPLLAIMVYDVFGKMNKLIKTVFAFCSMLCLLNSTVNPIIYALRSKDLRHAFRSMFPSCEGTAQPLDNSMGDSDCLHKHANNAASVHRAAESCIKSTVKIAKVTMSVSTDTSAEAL

[6] = biological target: Cannabinoid receptor 2 (Mus musculus) (UniProt P47936); assay: Antagonist/inverse agonist activity at CB2 receptor in mouse BV2 cells assessed as increase in LPS-induced PGE2 production at 10 fold Ki concentration incubated for 16 hrs by ELISA in presence of CB2 antagonist/inverse agonist SR144528; assay type: cell-based; conditions: BV-2
Cannabinoid receptor 2 [7] = biological target: T1, Cannabinoid receptor 2; assay: Displacement of [3H]CP55940 from human CB2 receptor expressed in HEK293-EBNA cell membrane incubated for 90 mins by liquid scintillation counting method; assay type: cell membranes
Cannabinoid receptor 1 [8] = biological target: T2, Cannabinoid receptor 1; assay: Displacement of [3H]CP55940 from human CB1 receptor expressed in HEK293-EBNA cell membrane incubated for 90 mins by liquid scintillation counting method; assay type: cell membranes
[9] = biological target: Cannabinoid receptor 2 (Mus musculus) (UniProt P47936); assay: Antagonist/inverse agonist activity at CB2 receptor in mouse BV2 cells assessed as increase in LPS-induced PGE2 production at 10 fold Ki concentration incubated for 16 hrs by ELISA; assay type: cell-based; conditions: BV-2

SMILES | Activity (Cannabinoid receptor 2 [1]) | Activity [2] | IC50 (Cannabinoid receptor 2 [3]) | Ratio Ki [4] | Activity (Cannabinoid receptor 1 [5]) | Activity [6] | Ki (Cannabinoid receptor 2 [7]) | Ki (Cannabinoid receptor 1 [8]) | Activity [9]
CC1(C)C2CC[C@@](C)(C2)C1NC(=O)c1nn(-c2ccc(Cl)cc2Cl)c2c1Cc1cc(C3CC3)ccc1-2 (stereo partly drawn) | > 70% | Active | 80.4 nM | > 6940 | > 70% | inactive | 6 nM | > 40000 nM | Active
CC1(C)[C@@H]2CC[C@]1(C)[C@H](NC(=O)c1nn(-c3ccc(Cl)cc3Cl)c3c1Cc1cc(C4CC4)ccc1-3)C2 | > 70% | Active | 26.9 nM | > 1060 | > 70% | Active | 38 nM | > 40000 nM | inactive
O=C(NN1CCCCC1)c1nn(-c2ccc(Cl)cc2Cl)c2c1ccc1cc(C3CC3)ccc12 | > 70% |  |  | > 48.5 | > 70% |  | 825 nM | > 40000 nM | 
O=C(NN1CCOCC1)c1nn(-c2ccc(Cl)cc2Cl)c2c1Cc1cc(C3CC3)ccc1-2 | > 70% |  |  | 20.4 | > 70% |  | 198 nM | 4030 nM | 
O=C(NN1CCCCC1)c1nn(-c2ccc(Cl)cc2Cl)c2c1Cc1cc(C3CCCCC3)ccc1-2 | > 70% |  |  | > 19.6 | > 70% |  | 509 nM | > 10000 nM | 
CC1(C)C2CC[C@@](C)(C2)C1NC(=O)c1nn(-c2ccc(Cl)cc2Cl)c2c1ccc1cc(C3CC3)ccc12 (stereo partly drawn) | > 70% |  |  |  | > 70% |  | > 40000 nM | > 40000 nM | 
CC1(C)C2CCC(CNC(=O)c3nn(-c4ccc(Cl)cc4Cl)c4c3CCc3cc(C5CC5)ccc3-4)C1C2 (stereo not drawn) | > 70% |  |  |  | > 70% |  | > 10000 nM | > 10000 nM | 
O=C(NN1CCCC1)c1nn(-c2ccc(Cl)cc2Cl)c2c1ccc1cc(C3CC3)ccc12 | > 70% |  |  |  | > 70% |  | > 40000 nM | > 40000 nM | 
O=C(NN1CCCCC1)c1nn(-c2ccc(Cl)cc2Cl)c2c1Cc1cc(C3CC3)ccc1-2 | > 70% |  | 294 nM | 26.7 | > 70% |  | 69.4 nM | 1850 nM | 
O=C(NC12CC3CC(CC(C3)C1)C2)c1nn(-c2ccc(Cl)cc2Cl)c2c1Cc1cc(C3CC3)ccc1-2 | > 70% | Active | 50.7 nM | > 2230 | > 70% | inactive | 4 nM | > 10000 nM | inactive
O=C(NN1CCCC1)c1nn(-c2ccc(Cl)cc2Cl)c2c1Cc1cc(C3CC3)ccc1-2 | > 70% |  |  | 27.7 | > 70% |  | 152 nM | 4210 nM | 
O=C(NN1CCCCC1)c1nn(-c2ccc(Cl)cc2Cl)c2c1CCc1cc(C3CC3)ccc1-2 | > 70% |  |  | > 280 | > 70% |  | 143 nM | > 40000 nM | 
CC1(C)C2CC[C@@](C)(C2)C1NC(=O)c1nn(-c2ccc(Cl)cc2Cl)c2c1CCc1cc(C3CC3)ccc1-2 (stereo partly drawn) | > 70% |  |  | > 7.25 | > 70% |  | 5520 nM | > 40000 nM | 
O=C(NN1CCCC1)c1nn(-c2ccc(Cl)cc2Cl)c2c1Cc1cc(C3CCCCC3)ccc1-2 | > 70% |  |  | > 19.4 | > 70% |  | 515 nM | > 10000 nM | 
O=C(c1nn(-c2ccc(Cl)cc2Cl)c2c1Cc1cc(C3CC3)ccc1-2)N1CCCCC1 | > 70% |  |  | > 24.2 | > 70% |  | 414 nM | > 10000 nM | 
CC1(C)C2CC[C@@](C)(C2)C1NC(=O)c1nn(-c2ccc(Cl)cc2Cl)c2c1Cc1cc(C3CCCCC3)ccc1-2 (stereo partly drawn) | > 70% |  |  |  | > 70% |  | > 10000 nM | > 10000 nM | 
O=C(c1nn(-c2ccc(Cl)cc2Cl)c2c1ccc1cc(C3CC3)ccc12)N1CCCCC1 | > 70% |  |  |  | > 70% |  | > 40000 nM | > 40000 nM | 
